Values of other authors in US20240268416A1, “ANIMAL FEED ADDITIVE COMPOSITIONS AND METHODS OF USE” (PMI Nutrition, LLC, priority 2023, published 2024).

System: C. elegans
Details: C. elegans assay

Substance: urolithins
- concentration needed to obtain a positive effect on muscle function: 50 µM
- concentration required to trigger the muscle function response: 11.4 µg/mL
